Reference: paper PMC4486022 (Cell reports, 2014)

What was measured:
[1] = biological target: T1, yIre1 (recombinant yeast IRE1) (Saccharomyces cerevisiae, UniProt P32361); experiment: in vitro RNase assay, radiolabeled HAC1 RNA cleavage; type: biochemical
T1 sequence (P32361 641-1115 limits assumed): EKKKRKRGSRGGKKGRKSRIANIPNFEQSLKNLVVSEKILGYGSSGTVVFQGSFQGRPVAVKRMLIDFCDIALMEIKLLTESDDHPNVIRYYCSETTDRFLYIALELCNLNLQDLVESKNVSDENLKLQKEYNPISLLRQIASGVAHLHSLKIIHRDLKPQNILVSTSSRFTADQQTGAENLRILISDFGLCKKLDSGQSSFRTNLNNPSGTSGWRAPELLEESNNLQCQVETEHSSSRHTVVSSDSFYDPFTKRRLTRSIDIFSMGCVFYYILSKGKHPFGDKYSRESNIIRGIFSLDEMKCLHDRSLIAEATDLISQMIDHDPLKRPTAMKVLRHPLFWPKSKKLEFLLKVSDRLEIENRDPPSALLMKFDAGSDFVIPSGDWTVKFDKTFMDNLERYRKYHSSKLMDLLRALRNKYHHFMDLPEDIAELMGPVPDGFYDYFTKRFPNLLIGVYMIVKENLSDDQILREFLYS

[2] = biological target: T1, yIre1 (recombinant yeast IRE1); experiment: in vitro RNase assay, HAC1 and BLOS1 RNA cleavage; type: biochemical; settings: activator, 100 μM, 1 μM yIre1; Q site at kinase/RNase interface

| IC50 [1] | SMILES | in vitro RNase assay, HAC1 and BLOS1 RNA cleavage (activation) [2] |
| --- | --- | --- |
| ~30 µM | O=S(=O)(N=Cc1c(O)ccc2ccccc12)c1cccs1 [STF-083010] | – |
| – | O=c1c(O)c(-c2ccc(O)c(O)c2)oc2cc(O)cc(O)c12 [quercetin] | binding of Q to Ire1 was sufficient to promote cleavage of RIDD substrate RNA |
